Data taken from patent US10870647B2, “Imidazopyridine derivative, method for preparing same, and pharmaceutical composition containing same as active ingredient for preventing or treating cancer” (DAEGU-GYEONGBUK MEDICAL INNOVATION FOUNDATION, priority 2016, dated 2020).

Columns and labels:
Test in all cases: Kinase selectivity, scanMAX Kinase assay panel (DiscoverX), % control at 1 uM
Assay type in all cases: binding
[1] = biological target: T1, scanMAX Kinase assay panel (Homo sapiens, UniProt P31749); conditions: AKT1; 1 uM; read-out: Percent Control (%)
T1 construct: purchased DiscoverX
Procedure, shortened: (§1)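 Each kinase was first exposed to the test compound at 1 uM in DMSO. Signal was then normalised to positive and negative controls to give % control. Finally, any enzyme showing <35% control was judged inhibited.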

[2] = biological target: T2, scanMAX Kinase assay panel (Homo sapiens, UniProt Q9BVS4); conditions: RIOK2; 1 uM; read-out: Percent Control (%)
T2 construct: purchased DiscoverX
Procedure, shortened: as §1

[3] = biological target: T3, scanMAX Kinase assay panel (Homo sapiens, UniProt P36888, N841I); conditions: FLT3 (N841I); 1 uM; read-out: Percent Control (%)
T3 construct: purchased DiscoverX
T3 sequence (P36888 27-993 N841I): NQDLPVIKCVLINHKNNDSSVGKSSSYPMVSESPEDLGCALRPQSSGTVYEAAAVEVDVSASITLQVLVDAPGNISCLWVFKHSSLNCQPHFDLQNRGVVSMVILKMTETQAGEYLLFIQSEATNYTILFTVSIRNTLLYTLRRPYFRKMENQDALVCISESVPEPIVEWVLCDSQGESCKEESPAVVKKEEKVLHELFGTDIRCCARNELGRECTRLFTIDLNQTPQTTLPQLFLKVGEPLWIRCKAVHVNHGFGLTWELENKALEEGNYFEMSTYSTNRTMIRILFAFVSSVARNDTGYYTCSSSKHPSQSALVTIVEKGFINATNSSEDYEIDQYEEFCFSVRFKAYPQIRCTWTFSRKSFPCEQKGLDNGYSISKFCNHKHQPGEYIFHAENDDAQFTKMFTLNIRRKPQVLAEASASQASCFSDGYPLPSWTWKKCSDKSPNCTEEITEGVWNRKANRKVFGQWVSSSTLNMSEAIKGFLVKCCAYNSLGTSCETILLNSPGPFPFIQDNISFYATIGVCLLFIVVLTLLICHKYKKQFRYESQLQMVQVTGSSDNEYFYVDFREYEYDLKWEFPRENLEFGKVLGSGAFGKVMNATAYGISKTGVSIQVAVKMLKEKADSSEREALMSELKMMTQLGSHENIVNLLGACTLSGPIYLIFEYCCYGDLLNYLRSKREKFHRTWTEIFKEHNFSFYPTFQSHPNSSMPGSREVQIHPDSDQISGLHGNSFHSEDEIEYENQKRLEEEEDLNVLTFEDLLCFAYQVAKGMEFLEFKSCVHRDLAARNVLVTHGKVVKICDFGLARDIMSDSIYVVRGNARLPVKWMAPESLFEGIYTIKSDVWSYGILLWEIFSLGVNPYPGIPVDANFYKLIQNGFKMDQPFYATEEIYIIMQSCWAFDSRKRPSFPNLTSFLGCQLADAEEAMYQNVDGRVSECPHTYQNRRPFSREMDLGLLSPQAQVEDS
Procedure, shortened: as §1

[4] = biological target: T4, scanMAX Kinase assay panel (Homo sapiens, UniProt P07949, V804L); conditions: RET (V804L); 1 uM; read-out: Percent Control (%)
T4 construct: purchased DiscoverX
Procedure, shortened: as §1

[5] = biological target: T5, scanMAX Kinase assay panel (Homo sapiens, UniProt O76039); conditions: CDKL5; 1 uM; read-out: Percent Control (%)
T5 construct: purchased DiscoverX
T5 sequence (O76039 1-960): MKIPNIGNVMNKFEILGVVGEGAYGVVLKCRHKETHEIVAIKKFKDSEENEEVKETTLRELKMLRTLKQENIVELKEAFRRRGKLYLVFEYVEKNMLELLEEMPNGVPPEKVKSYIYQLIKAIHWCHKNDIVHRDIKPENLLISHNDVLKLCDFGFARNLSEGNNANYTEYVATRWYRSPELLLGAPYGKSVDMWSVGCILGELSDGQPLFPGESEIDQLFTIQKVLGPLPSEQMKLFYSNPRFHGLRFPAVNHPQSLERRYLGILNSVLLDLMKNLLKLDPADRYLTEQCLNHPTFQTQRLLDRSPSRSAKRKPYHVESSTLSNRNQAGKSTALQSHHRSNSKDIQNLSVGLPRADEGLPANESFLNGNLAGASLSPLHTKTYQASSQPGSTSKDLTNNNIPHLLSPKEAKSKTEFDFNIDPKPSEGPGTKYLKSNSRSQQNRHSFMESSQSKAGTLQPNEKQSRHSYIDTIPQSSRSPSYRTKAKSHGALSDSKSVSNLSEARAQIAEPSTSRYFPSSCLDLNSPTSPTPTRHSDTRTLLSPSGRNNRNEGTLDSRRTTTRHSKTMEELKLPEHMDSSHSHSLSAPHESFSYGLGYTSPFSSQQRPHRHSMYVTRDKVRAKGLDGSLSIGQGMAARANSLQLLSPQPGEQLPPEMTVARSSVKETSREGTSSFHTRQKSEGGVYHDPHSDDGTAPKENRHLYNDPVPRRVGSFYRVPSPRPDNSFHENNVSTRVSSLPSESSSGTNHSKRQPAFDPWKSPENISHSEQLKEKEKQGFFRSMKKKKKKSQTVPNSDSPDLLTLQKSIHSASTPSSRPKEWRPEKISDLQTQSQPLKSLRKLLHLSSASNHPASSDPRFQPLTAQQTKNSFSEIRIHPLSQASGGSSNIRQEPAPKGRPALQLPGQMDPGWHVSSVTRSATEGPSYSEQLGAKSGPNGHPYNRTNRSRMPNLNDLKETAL
Procedure, shortened: as §1

T4 sequence (P07949 29-1114 V804L): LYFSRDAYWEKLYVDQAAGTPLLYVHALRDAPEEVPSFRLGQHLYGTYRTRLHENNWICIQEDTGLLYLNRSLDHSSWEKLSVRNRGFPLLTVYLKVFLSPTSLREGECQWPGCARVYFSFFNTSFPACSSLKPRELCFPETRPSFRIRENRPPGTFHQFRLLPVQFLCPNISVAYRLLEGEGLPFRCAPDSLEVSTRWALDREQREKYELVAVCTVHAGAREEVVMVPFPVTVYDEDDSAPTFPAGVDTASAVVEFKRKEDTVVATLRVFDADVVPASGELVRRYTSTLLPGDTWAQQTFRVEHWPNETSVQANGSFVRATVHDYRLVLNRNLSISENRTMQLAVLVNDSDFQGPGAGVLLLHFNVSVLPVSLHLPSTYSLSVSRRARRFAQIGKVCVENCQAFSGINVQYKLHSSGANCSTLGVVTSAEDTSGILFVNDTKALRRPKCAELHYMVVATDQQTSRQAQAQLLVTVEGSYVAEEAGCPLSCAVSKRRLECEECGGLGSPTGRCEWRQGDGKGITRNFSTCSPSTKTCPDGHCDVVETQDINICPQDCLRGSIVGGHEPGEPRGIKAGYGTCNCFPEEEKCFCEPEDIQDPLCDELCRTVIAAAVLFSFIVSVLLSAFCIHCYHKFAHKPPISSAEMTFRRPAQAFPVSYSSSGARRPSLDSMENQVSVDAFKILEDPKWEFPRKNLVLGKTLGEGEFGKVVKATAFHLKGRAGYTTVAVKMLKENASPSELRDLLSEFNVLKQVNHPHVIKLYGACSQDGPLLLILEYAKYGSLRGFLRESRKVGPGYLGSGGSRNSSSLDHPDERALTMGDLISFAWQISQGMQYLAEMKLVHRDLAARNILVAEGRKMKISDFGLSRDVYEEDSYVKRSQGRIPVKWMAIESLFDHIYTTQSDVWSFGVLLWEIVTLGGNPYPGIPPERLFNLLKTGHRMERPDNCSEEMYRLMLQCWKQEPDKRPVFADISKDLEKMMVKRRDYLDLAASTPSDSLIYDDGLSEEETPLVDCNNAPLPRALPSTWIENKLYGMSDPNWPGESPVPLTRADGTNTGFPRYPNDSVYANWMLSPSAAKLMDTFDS
T1 sequence (P31749 whole entry): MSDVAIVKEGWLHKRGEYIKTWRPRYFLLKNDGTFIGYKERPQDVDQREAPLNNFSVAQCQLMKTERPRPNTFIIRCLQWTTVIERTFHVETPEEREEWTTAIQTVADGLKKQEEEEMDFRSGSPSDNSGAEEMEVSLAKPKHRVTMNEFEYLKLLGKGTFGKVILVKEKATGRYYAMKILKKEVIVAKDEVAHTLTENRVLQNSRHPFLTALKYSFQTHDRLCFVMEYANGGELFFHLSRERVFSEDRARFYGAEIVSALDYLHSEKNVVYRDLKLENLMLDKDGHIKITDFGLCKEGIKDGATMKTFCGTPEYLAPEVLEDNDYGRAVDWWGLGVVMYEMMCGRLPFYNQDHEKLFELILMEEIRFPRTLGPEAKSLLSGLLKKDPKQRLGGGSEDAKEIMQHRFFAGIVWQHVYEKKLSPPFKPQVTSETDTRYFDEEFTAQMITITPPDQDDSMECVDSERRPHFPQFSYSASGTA
T2 sequence (Q9BVS4 whole entry): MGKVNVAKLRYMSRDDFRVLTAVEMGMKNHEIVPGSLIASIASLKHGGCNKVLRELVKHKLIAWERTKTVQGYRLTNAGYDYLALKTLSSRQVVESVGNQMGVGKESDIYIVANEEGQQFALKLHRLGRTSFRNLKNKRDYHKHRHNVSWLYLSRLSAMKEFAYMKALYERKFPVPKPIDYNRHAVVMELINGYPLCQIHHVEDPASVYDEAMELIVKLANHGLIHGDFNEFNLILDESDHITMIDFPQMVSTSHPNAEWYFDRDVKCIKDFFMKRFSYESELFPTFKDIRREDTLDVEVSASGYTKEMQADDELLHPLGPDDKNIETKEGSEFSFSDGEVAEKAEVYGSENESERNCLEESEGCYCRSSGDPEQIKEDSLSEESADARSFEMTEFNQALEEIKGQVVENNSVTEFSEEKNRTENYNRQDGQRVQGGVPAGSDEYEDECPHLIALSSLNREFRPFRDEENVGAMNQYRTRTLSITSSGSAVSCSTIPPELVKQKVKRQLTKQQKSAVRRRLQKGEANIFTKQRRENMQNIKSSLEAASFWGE

Structure (SMILES): Cc1ccc(C(=O)Nc2ccc(CN3CCN(C)CC3)c(C(F)(F)F)c2)cc1C#Cc1cnc2c(Nc3cnn(C)c3)cccn12 [Example 1, 4-methyl-3-((8-((1-methyl-1H-pyrazol-4-yl)amino)imidazo[1,2-a]pyridin-3-yl)ethynyl)-N-(4-((4-methylpiperazin-1-yl)methyl)-3-(trifluoromethyl)phenyl)benzamide]
- remaining binding at 1 µM [1]: 80%
- remaining binding at 1 µM [2]: 88%
- remaining binding at 1 µM [3]: 0%
- remaining binding at 1 µM [4]: 0%
- remaining binding at 1 µM [5]: 94%

Structure (SMILES): Cc1cn(-c2cc(NC(=O)c3ccc(C)c(C#Cc4cnc5c(Nc6cnn(C)c6)cccn45)c3)cc(C(F)(F)F)c2)cn1 [Example 12, 4-methyl-N-(3-(4-methyl-1H-imidazol-1-yl)-5-(trifluoromethyl)phenyl)-3-((8-((1-methyl-1H-pyrazol-4-yl)amino)imidazo[1,2-a]pyridin-3-yl)ethynyl)benzamide]
- remaining binding at 1 µM [1]: 88%
- remaining binding at 1 µM [2]: 100%
- remaining binding at 1 µM [3]: 28%
- remaining binding at 1 µM [4]: 2%
- remaining binding at 1 µM [5]: 100%

Structure (SMILES): Cc1ccc(NC(=O)C2(C(=O)Nc3ccc(F)cc3)CC2)cc1C#Cc1cnc2c(Nc3cnn(C(C)C)c3)cccn12 [Example 78]
- remaining binding at 1 µM [1]: 98%
- remaining binding at 1 µM [2]: 100%
- remaining binding at 1 µM [3]: 59%
- remaining binding at 1 µM [4]: 100%
- remaining binding at 1 µM [5]: 92%
